We go through 4 compounds from patent publication US9180175B2, “Methods of use for a natural Thomsen-Friedenreich disaccharide compound” (UNIVERSITY OF MARYLAND, BALTIMORE, priority 2011, dated 2015).

Where two headings read alike, the source gives them in different places.

Assay [1] has as its system human CD8+ T cells. In words: Gal3-mediated apoptosis of human CD8+ T cells (annexin V). In kind it is cell-based. An excerpt:
(§1) Jurkat cells were used for gal3-mediated apoptosis at various concentration of gal3. To investigate gal3-mediated apoptosis of human CD8^+ cells, peripheral blood mononuclear cells (PBMCs) were isolated from chronic leukemia patients using Ficoll-paque density gradient method (39) followed by negative selection of CD8^+ cells with a cocktail of antibodies using a kit (BD Biosciences, MD). The presence of CD8^+ cells in the purified fraction was confirmed by staining cells with anti-CD8 antibody.

Assay [2] has as its system activated pmel T cells on B16 melanoma cells. In words: B16 melanoma cell-associated apoptosis of activated pmel T cells. Particulars: B16 monolayer about 24 h; untreated about 53%; TFD100 3.5 nM, lactose 50 μM. It is filed as cell-based, mouse. On the procedure:
To investigate if tumor-associated gal3 can induce tumor specific CD8 T cells, we used B16 melanoma-specific transgenic D90.1 CD8 T cells (pmel T cells) (40). After harvesting T cells from mouse spleen, cells were activated with a peptide (40), mixed with a monolayer of B16 melanoma cells and apoptosis was measured by Annexin V binding after gating with anti-CD8 antibodies.

Assay [3] concerns the target gal9N (N-terminal of gal9) (UniProt O00182). Briefly: Solid phase binding-inhibition assay: gal9N binding to asialofetuin. Particulars: read-out: I50 value.
Assay [4] deals with T1, gal4 (Homo sapiens, UniProt P56470).
T1 sequence (P56470 1-323): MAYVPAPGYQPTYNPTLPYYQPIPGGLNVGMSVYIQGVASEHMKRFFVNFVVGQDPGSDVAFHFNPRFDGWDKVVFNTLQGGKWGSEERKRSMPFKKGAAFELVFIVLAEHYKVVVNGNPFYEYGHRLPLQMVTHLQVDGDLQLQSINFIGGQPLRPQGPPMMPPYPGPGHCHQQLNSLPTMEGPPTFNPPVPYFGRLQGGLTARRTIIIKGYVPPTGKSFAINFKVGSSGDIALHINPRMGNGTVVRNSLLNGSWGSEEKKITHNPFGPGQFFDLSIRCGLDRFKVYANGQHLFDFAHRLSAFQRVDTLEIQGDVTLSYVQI
Briefly: Solid phase binding-inhibition assay: gal4 binding to asialofetuin. Particulars: read-out: I50 value.

The subject of assay [5] is MOLT-4 cells. Briefly: Gal3-mediated apoptosis of MOLT-4 cells (annexin V). It is filed as cell-based, human.
Assay [6] relates to Jurkat cells. Briefly: Gal3-mediated apoptosis of Jurkat cells. It is filed as cell-based, human.
Description: as §1

For assay [7], the target named is T2, gal3 (Homo sapiens, UniProt P17931).
T2 construct: made in house
T2 sequence (P17931 whole entry): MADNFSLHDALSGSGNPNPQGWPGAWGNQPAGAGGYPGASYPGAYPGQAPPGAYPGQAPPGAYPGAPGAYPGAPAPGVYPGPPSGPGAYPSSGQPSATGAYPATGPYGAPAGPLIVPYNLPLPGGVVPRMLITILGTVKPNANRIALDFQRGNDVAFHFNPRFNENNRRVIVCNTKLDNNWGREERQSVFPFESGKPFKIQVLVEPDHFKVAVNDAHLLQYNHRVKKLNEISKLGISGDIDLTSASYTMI
In words: Surface plasmon resonance (Biacore) kinetics and affinity for gal3. It is filed as binding. Particulars: SPR, biotinylated gal3 on chip. On the procedure:
The binding kinetics and affinity of a few carbohydrates for gal3 were measured in Surface Plasmon Resonance (SPR)-based binding assays using a Biacore™ T200 instrument (GE Healthcare). Biotinylated gal3 was attached to Biacore Sensor Chip SA (GE Healthcare) according to the instructions. For this purpose, biotinlyated gal3 was diluted into HBS-EP+ (GE Heathcare) to a concentration of 1 μg/mL and captured onto the streptavidin surface to a final level of 1750 RU. A reference surface was prepared with biotin captured onto the streptavidin. […] The binding response of small carbohydrate ligands were measured in Resonance units (RU) in real time at 10 HZ. These carbohydrates were injected for 30 seconds at 50 μL/min, and 30 seconds of dissociation data were collected. […] Raw sensorgram data were reference subtracted and blank subtracted prior to kinetic and affinity analysis. Biacore™ T200 Evaluation software was used for Steady-state affinity analysis and kinetic analysis.
A general note: SPR reads the build-up and loss of mass on a sensor chip optically.

Assay [8] addresses T2, gal3. In words: Solid phase binding-inhibition assay: gal3 binding to asialofetuin. Particulars: for IC50: read-out: I50 value (converted). On the procedure: Briefly, asialofetuin (0.5 μg/100 μl/well) in 0.1 M Na2CO3/0.02% NaN3 (pH 9.6) was adsorbed onto the wells of microtiter plates (Immulon; Dynatech Laboratories, Chantilly, Va.) at 37° C. for 3 h, and the bound glycoprotein was fixed with 2% formaldehyde in phosphate-buffered saline (PBS, 10 mM phosphate, 140 mM NaCl, pH 7.5) at 37° C. for 30 min. The plates were washed three times with PBS (azide-free)/0.05% Tween 20, and incubated with the gal3-biotin conjugate (10 ng/100 μl/well for binding assays) or with preincubated mixture of equal volume of conjugate and varying concentrations of test ligands (for binding-inhibition assays). After incubation for 1 h at 4° C., the plates were washed with ice-cold azide-free PBS-Tween 20, and the bound conjugate was allowed to interact with peroxidase labeled streptavidin (0.05 μg/100 μl well) in azide-free PBS-Tween for 1 h at 4° C. The plate was washed with ice-cold azide free PBS-Tween and the bound peroxidase activity was assayed with peroxidase substrate diammonium 2,2′-azinobis(3-ethylbenzothiazoline-6-sulfonate) (KPL, Rockville, Md.) (37). […] After incubation for 2 h on ice, the mix was dialyzed with PBS and purified by affinity chromatography on lactosyl-Sepharose (37). The purified gal3-biotin conjugate was dialyzed with PBS and stored in 1% BSA-50% glycerol at −20° C. until further use. […] O-Glycosidase treatment removes TF-disaccharide from protein (cleaves GalNAc-Ser/Thr linkage).

The test system of assay [9] is HUVEC. In words: In vitro angiogenesis (tube formation) of HUVEC. It is filed as cell-based, human. Particulars: recombinant gal3 5 μM, number of branching. On the procedure: After 5 h, the microvessel formation was analyzed under phase contrast microscope at the 10× magnification. For quantitation of tube formation, the number of branching was counted in six areas (each […]) of each well and an average value was taken.

The test system of assay [10] is pmel T cells. In words: Recombinant gal3-mediated apoptosis of tumor-specific CD8+ (pmel) T cells. It is filed as cell-based, mouse.

By inhibition is commonly meant the share of the control response that was lost under treatment. The low end stands for a response near the control, the high end for a response far below the control. `OC[C@H]1O[C@@H](O[C@H]2[C@H](O)[C@@H](O)C(O)O[C@@H]2CO)[C@H](O)[C@@H](O)[C@H]1O` (some centres unmarked) [Lactose]: the inhibition at 50 µM in assay [1] (Homo sapiens, T-cell) is approximately 67%; in assay [5] (Homo sapiens, MOLT-4) it was approximately 20%; in assay [6] (Homo sapiens, Jurkat) it was approximately 30%. For the same compound, the “apoptosis of T cells reduced to” value in assay [2] is 39%. Further, the IC50 in [3] was 100 µM; in assay [4], 10000 µM.

As usually defined, the Kd is the concentration at which binding is half-saturated. Lower therefore signals tighter binding. Take `CC(=O)N[C@H]1C(O)O[C@H](CO)[C@@H](O[C@@H]2O[C@H](CO)[C@H](O)[C@H](O)[C@H]2O)[C@@H]1O` (some centres unmarked) [N-acetyllactosamine]: in [7], the affinity, expressed as Kd, was 25 µM. This lies in the double-digit micromolar range.

Turning to `CC(=O)NC1C(O)OC(CO)C(O)C1OC1OC(CO)C(O)C(O)C1O` (centres unmarked) [TFD, Galβ1,3GalNAc], in [8] (from I50 in μg/ml, Table 1), the “RIA, relative inhibitory activity compared to lactose (taken as 1)” value worked out at 0.47. The IC50 was 200 µM in [8] (gal3 binding to asialofetuin) and 151 µM in assay [8] (inhibition of gal3 binding to asialofetuin, Table 1). Further, in [7], the Kd is 636 µM.

In assay [1] (gal3 5 μM, flow cytometry), “gal3: purified recombinant galectin-3, used as inducer of angiogenesis and T cell apoptosis” showed a cells death of approximately 54%. In addition, the “enhancement of tube formation” value in assay [9] is on record as approximately 25%. The compound further registered a cells undergoing apoptosis in assay [5] (gal3 5 μM, annexin V) of approximately 50%. The “cell death of non-activated CD8+ T cells” value in assay [10] (gal3 up to 15 μM, same as cells alone) is reported as approximately 22%. Also, the “apoptosis of activated CD8+ T cells” value in assay [10] (recombinant gal3 5 μM, CD8 alone ~61%) is recorded as approximately 76%. The compound also gave a gal3-mediated apoptosis in [6] (gal3 5 μM) of approximately 34%.
